Data from the supplement of paper PMC10307832.

Columns and labels:
Test in all cases: relative viability (nuclei count vs DMSO), 5 days (fraction); higher = more cells survive
Dasatinib + Navitoclax = compound: Cc1nc(Nc2ncc(C(=O)Nc3c(C)cccc3Cl)s2)cc(N2CCN(CCO)CC2)n1 [Dasatinib] + CC1(C)CCC(c2ccc(Cl)cc2)=C(CN2CCN(c3ccc(C(=O)NS(=O)(=O)c4ccc(N[C@H](CCN5CCOCC5)CSc5ccccc5)c(S(=O)(=O)C(F)(F)F)c4)cc3)CC2)C1 [Navitoclax] (partner 0.5 µM)
Summary of the method: (§1)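 The day after seeding in 1536-well plates, lung cancer cell lines were treated by pin tool with a single drug, or with a fixed anchor-drug dose together with five library-drug doses (not always all listed) in √10 steps. After 5 days, a combined fix-and-stain solution (final 0.05% Triton X-100, 1% formaldehyde, 1 ug/ml Hoechst) was added. Nuclei counted on 4× images gave relative viability as treated counts over vehicle counts, reported as the median of duplicate plates.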

Dasatinib + Pictilisib = compound: Cc1nc(Nc2ncc(C(=O)Nc3c(C)cccc3Cl)s2)cc(N2CCN(CCO)CC2)n1 [Dasatinib] + CS(=O)(=O)N1CCN(Cc2cc3nc(-c4cccc5[nH]ncc45)nc(N4CCOCC4)c3s2)CC1 [Pictilisib] (partner 1 µM)
Summary of the method: as §1

Dasatinib + Alpelisib = compound: Cc1nc(Nc2ncc(C(=O)Nc3c(C)cccc3Cl)s2)cc(N2CCN(CCO)CC2)n1 [Dasatinib] + Cc1nc(NC(=O)N2CCC[C@H]2C(N)=O)sc1-c1ccnc(C(C)(C)C(F)(F)F)c1 [Alpelisib] (partner 2 µM)
Summary of the method: as §1

ALW-II-49-7 + AZD7762 = compound: Cc1ccc(C(=O)Nc2cccc(C(F)(F)F)c2)cc1Nc1cncc(C(N)=O)c1 [ALW-II-49-7] + NC(=O)Nc1cc(-c2cccc(F)c2)sc1C(=O)N[C@H]1CCCNC1 [AZD7762] (partner 0.2 µM)
Summary of the method: as §1

Cell Line | relative viability (Dasatinib + Navitoclax; first compound 0.005 µM) | relative viability (Dasatinib + Navitoclax; first compound 0.01581 µM) | relative viability (Dasatinib + Navitoclax; first compound 0.05 µM) | relative viability (Dasatinib + Navitoclax; first compound 0.1581 µM) | relative viability (Dasatinib + Navitoclax; first compound 0.5 µM) | relative viability (Dasatinib + Pictilisib; first compound 0.005 µM) | relative viability (Dasatinib + Pictilisib; first compound 0.01581 µM) | relative viability (Dasatinib + Pictilisib; first compound 0.05 µM) | relative viability (Dasatinib + Pictilisib; first compound 0.1581 µM) | relative viability (Dasatinib + Pictilisib; first compound 0.5 µM) | relative viability (Dasatinib + Alpelisib; first compound 0.005 µM) | relative viability (Dasatinib + Alpelisib; first compound 0.01581 µM) | relative viability (Dasatinib + Alpelisib; first compound 0.05 µM) | relative viability (Dasatinib + Alpelisib; first compound 0.1581 µM) | relative viability (Dasatinib + Alpelisib; first compound 0.5 µM) | relative viability (ALW-II-49-7 + AZD7762; first compound 0.08 µM) | relative viability (ALW-II-49-7 + AZD7762; first compound 0.253 µM) | relative viability (ALW-II-49-7 + AZD7762; first compound 0.8 µM) | relative viability (ALW-II-49-7 + AZD7762; first compound 2.53 µM) | relative viability (ALW-II-49-7 + AZD7762; first compound 8 µM)
NCI-H520 | 0.946 | 0.644 | 0.555 | 0.273 | 0.27 | 0.278 | 0.265 | 0.213 | 0.148 | 0.157 | 0.539 | 0.456 | 0.457 | 0.145 | 0.142 | – | – | – | – | –
NCI-H1993 | 0.872 | 0.7 | 0.724 | 0.581 | 0.736 | 0.923 | 0.682 | 0.723 | 0.776 | 0.866 | 0.702 | 0.66 | 0.653 | 0.521 | 0.587 | 0.981 | 0.674 | 0.722 | 0.812 | 0.622
NCI-H1437 | 1.09 | 1.05 | 1.09 | 0.999 | 0.432 | 0.543 | 0.408 | 0.37 | 0.31 | 0.222 | 1.03 | 0.893 | 1.03 | 0.735 | 0.513 | 1.02 | 1.15 | 1.01 | 0.99 | 0.873
LC-2-ad | 0.553 | 0.418 | 0.341 | 0.13 | 0.1 | 0.397 | 0.346 | 0.237 | 0.128 | 0.0796 | 0.854 | 0.703 | 0.699 | 0.276 | 0.169 | 0.844 | 0.824 | 0.756 | 0.805 | 0.93
NCI-H650 | – | – | – | – | – | 0.862 | 0.794 | 0.898 | 0.497 | 0.345 | 1.16 | 1.05 | 1.04 | 0.726 | 0.428 | 1.02 | 0.967 | 1.05 | 0.866 | 0.678
NCI-H522 | – | – | – | – | – | – | – | – | – | – | – | – | – | – | – | 0.787 | 0.842 | 0.754 | 0.83 | 0.934
ABC-1 | – | – | – | – | – | 0.937 | 0.625 | 0.659 | 0.644 | 0.506 | 0.978 | 0.776 | 0.888 | 0.714 | 0.571 | 0.914 | 0.563 | 0.915 | – | 0.668
NCI-H1563 | – | – | – | – | – | 0.66 | 0.564 | 0.584 | 0.597 | 0.558 | 0.742 | 0.615 | 0.662 | 0.608 | 0.604 | – | – | – | – | –
NCI-H661 | – | – | – | – | – | 0.269 | 0.272 | 0.225 | 0.274 | 0.269 | 0.538 | 0.584 | 0.424 | 0.271 | 0.254 | – | – | – | – | –
SK-MES-1 | 1.18 | – | 1.41 | 0.802 | 0.429 | 0.329 | 0.287 | 0.242 | 0.165 | 0.16 | 0.991 | – | 0.713 | 0.474 | 0.251 | – | – | – | – | –
LCLC-103H | – | – | – | – | – | 0.665 | 0.514 | 0.515 | 0.286 | 0.17 | 0.978 | 1.06 | 0.818 | 0.647 | 0.328 | 0.742 | 0.817 | 0.756 | 0.649 | 0.656
NCI-H1648 | – | – | – | – | – | – | – | – | – | – | – | – | – | – | – | 0.62 | 0.697 | 0.74 | 0.678 | 0.618
EBC-1 | 0.477 | 0.289 | 0.314 | 0.25 | 0.283 | 0.329 | 0.231 | 0.216 | 0.181 | 0.204 | 0.78 | 0.755 | 0.579 | 0.579 | 0.463 | – | – | – | – | –
NCI-H1650 | 1.26 | 0.934 | 0.83 | 0.506 | 0.387 | 0.481 | 0.277 | 0.259 | 0.215 | 0.199 | – | – | – | – | – | – | – | – | – | –
SW 1573 | 0.906 | 0.899 | 0.946 | 0.473 | 0.481 | 0.431 | 0.426 | 0.379 | 0.265 | 0.203 | 0.596 | 0.524 | 0.438 | 0.302 | 0.241 | – | – | – | – | –
NCI-H1299 | 1.04 | 1.05 | 1.1 | 0.6 | 0.31 | 0.676 | 0.359 | 0.313 | 0.091 | 0.0817 | 1.07 | 1.13 | 1.08 | 0.924 | 0.288 | – | – | – | – | –
SK-LU-1 | 0.812 | 0.57 | 0.301 | 0.226 | 0.154 | 0.369 | 0.312 | 0.244 | 0.201 | 0.174 | 0.623 | 0.399 | 0.318 | 0.2 | 0.234 | – | – | – | – | –
COR-L23 | 1.01 | 0.85 | 0.797 | 0.55 | 0.347 | 0.714 | 0.608 | 0.744 | 0.34 | 0.207 | 0.591 | 0.5 | 0.523 | 0.347 | 0.216 | – | – | – | – | –
A549 | 1.27 | 1.2 | 1.27 | 1.06 | 0.443 | 0.388 | 0.257 | 0.3 | 0.134 | 0.0986 | 0.65 | 0.479 | 0.558 | 0.432 | 0.139 | – | – | – | – | –
NCI-H2023 | 0.978 | 0.854 | 0.795 | 0.778 | 0.488 | 0.21 | 0.142 | 0.202 | 0.173 | 0.151 | 0.479 | 0.481 | 0.436 | 0.473 | 0.27 | – | – | – | – | –
IA-LM | 0.878 | 0.923 | 1.04 | 0.876 | 0.665 | 0.416 | 0.312 | 0.378 | 0.276 | 0.257 | 0.969 | 0.71 | 0.882 | 0.84 | 0.62 | – | – | – | – | –
NCI-H2009 | 1.23 | 1.12 | 1.3 | 0.761 | 0.235 | 0.705 | 0.503 | 0.41 | 0.193 | 0.124 | 1.15 | 0.956 | 1.04 | 0.88 | 0.204 | – | – | – | – | –
